Laboratory results published in patent US10906946B2, “Thrombin inhibitors” (priority 2015, dated 2021).
Values joined by “and” are separate entries in the source; they are usually repeats but may differ in a detail not shown here. Equal values may be shown once. “Also recorded” adds a separate entry of the source. Peptide text beside a SMILES is read from it.

Assays:
human α-thrombin = target: T1, human α-thrombin (Homo sapiens, UniProt P00734); assay: Thrombin amidolytic activity assay with chromogenic substrate S2238; format: biochemical; conditions: for Hill slope of thrombin amidolytic inhibition: 0 min pre-incubation where stated; for IC50: IC50 of inhibition of thrombin amidolytic activity, S2238 100 μM, without pre-incubation (0 min) where stated
T1 construct: residues in the termini of the light chain; purchased Chemo-Sero-Therapeutic Research Institute (Kaketsuken, Japan), as a gift, not bought
Description: Thrombin amidolytic activity assays for all peptides were performed in 96-wells microtiter plates in 50 mM Tris buffer (pH 7.4) containing 100 mM NaCl and 1 mg/ml bovine serum albumin. […] The rates of formation of p-nitroaniline were followed by measuring the absorbance at 405 nm for 10 min with a Tecan InfinitePro M200 microplate reader from Tecan (Männedorf, Switzerland). Dose-response curves were fitted using the GraphPad Prizm software (San Diego, Calif., USA) to calculate IC50 values and Hill coefficients. To measure the inhibitory constants, different concentrations of S2238 were used and the residual velocities were determined using the Morrison's tight binding equation. Inhibition of thrombin fibrinogenolytic activity of peptides were tested by measuring absorbance at 650 nm using a Sunrise microplate reader from Tecan (Männedorf, Switzerland) as described previously [Koh C Y, et al., J Biol Chem 282: 29101-13 (2007)]. The selectivity of avathrin was examined against 13 serine proteases (FIG. 5). Effects of avathrin on the amidolytic activities of these serine proteases were determined using respective chromogenic substrates. […] Avathrin (150 μM) was incubated with thrombin (5 μM), in 50 mM Tris buffer (pH 7.4) containing 150 mM NaCl and 1 mg/ml BSA. After different incubation times, reactions were quenched with 1% TFA (pH 1.8) and loaded onto a Jupiter Proteo column (4 μm, 90 Å, 100×1.0 mm) attached to a Dionex nano-HPLC system from Thermo Fisher Scientific (Waltham, Mass., USA) and eluted using an acetonitrile gradient with 0.05% TFA and 99.95% MilliQ water as eluent A and 0.05% TFA, 19.95% MilliQ water and 80% ACN as eluent B. Masses of all peaks were measured to identify cleavage products, which were subsequently quantified by integrating the peaks and calculating the area under the curves. To measure the effect of different pre-incubation times on the thrombin inhibitory activity, amidolytic assays were performed for various incubation times (up to 36 h).

thrombin = target: T2, thrombin (Homo sapiens, UniProt P00734); assay: Inhibition of thrombin fibrinogenolytic activity (fibrinogen clotting time); format: biochemical
T2 construct: residues in the termini of the light chain; and in the autolysis loop and C-terminus of the heavy chain; purchased Chemo-Sero-Therapeutic Research Institute (Kaketsuken, Japan), as a gift, not bought
Description: Thrombin amidolytic activity assays for all peptides were performed in 96-wells microtiter plates in 50 mM Tris buffer (pH 7.4) containing 100 mM NaCl and 1 mg/ml bovine serum albumin. Typically, 100 μl of peptide and 100 μl of thrombin were pre-incubated for different durations before 100 μl of S2238 was added to the reaction wells. The rates of formation of p-nitroaniline were followed by measuring the absorbance at 405 nm for 10 min with a Tecan InfinitePro M200 microplate reader from Tecan (Männedorf, Switzerland). Dose-response curves were fitted using the GraphPad Prizm software (San Diego, Calif., USA) to calculate IC50 values and Hill coefficients. To measure the inhibitory constants, different concentrations of S2238 were used and the residual velocities were determined using the Morrison's tight binding equation. Inhibition of thrombin fibrinogenolytic activity of peptides were tested by measuring absorbance at 650 nm using a Sunrise microplate reader from Tecan (Männedorf, Switzerland) as described previously [Koh C Y, et al., J Biol Chem 282: 29101-13 (2007)]. The selectivity of avathrin was examined against 13 serine proteases (FIG. 5). Effects of avathrin on the amidolytic activities of these serine proteases were determined using respective chromogenic substrates. Cleavage of avathrin by thrombin. Avathrin (150 μM) was incubated with thrombin (5 μM), in 50 mM Tris buffer (pH 7.4) containing 150 mM NaCl and 1 mg/ml BSA. After different incubation times, reactions were quenched with 1% TFA (pH 1.8) and loaded onto a Jupiter Proteo column (4 μm, 90 Å, 100×1.0 mm) attached to a Dionex nano-HPLC system from Thermo Fisher Scientific (Waltham, Mass., USA) and eluted using an acetonitrile gradient with 0.05% TFA and 99.95% MilliQ water as eluent A and 0.05% TFA, 19.95% MilliQ water and 80% ACN as eluent B. Masses of all peaks were measured to identify cleavage products, which were subsequently quantified by integrating the peaks and calculating the area under the curves. To measure the effect of different pre-incubation times on the thrombin inhibitory activity, amidolytic assays were performed for various incubation times (up to 36 h).

[1] = system: FeCl3-induced carotid artery thrombosis; assay: Ferric chloride-induced carotid artery thrombosis model; format: in vivo, C57BL/6 male mice; conditions: mice, 10% FeCl3
Description: All animal experiments were carried out under protocol 041/12 approved by Institutional Animal Care and Use Committee, National University of Singapore. The ferric chloride induced carotid artery thrombosis model was performed as described previously [Eckly A, et al., J Thromb Haemost 9: 779-89 (2011)] with minor modifications. Typically, C57BL/6 male mice (9-11 weeks old, 24.5-27.5 g) were anesthetized with an intraperitoneal injection of ketamine (75 mg/kg) and medetomidine (1 mg/kg). 100 μL of different doses of avathrin were injected into the mice via tail vein. The right carotid artery was dissected using blunt dissection and a vascular injury was caused applying filter paper of 2 mm×2 mm saturated with FeCl3 on top of the carotid artery. After 3 min, the filter paper was removed and the vessel was washed with sterile normal saline. To determine the time to occlusion, a miniature Doppler flow probe (Transonic Systems Inc., Ithaca, N.Y., USA) was placed around the carotid artery and blood flow was recorded using a Transonic® flow meter from ADInstruments (Dunedin, New Zealand). The maximal time for monitoring the blood flow after injury was 30 min. Mice were euthanized by cervical dislocation immediately after the completion of the experiment and prior to recovery from anesthesia.

Compound | Hill slope of thrombin amidolytic inhibition (human α-thrombin) | Hill slope of thrombin amidolytic inhibition, 10 min pre-incubation (human α-thrombin) | IC50 (human α-thrombin; thrombin 0.81 nM) | Ki (human α-thrombin; Ki(nM), Table 2) | Hill Slope (human α-thrombin; Table 2) | effect on fibrinogen clotting time / thrombin fibrinogenolytic activity (thrombin) | Ki (human α-thrombin; inhibitory constant Ki for thrombin, thrombin 0.81 nM, various S2238 concentrations) | effect on thrombin amidolytic activity (human α-thrombin; 3-300 μM) | IC50(nM) (human α-thrombin; Table 2) | Ki(nM) (human α-thrombin; Table 2) | activation of thrombin amidolytic activity (human α-thrombin; high concentrations, up to 300 μM) | time to occlusion (TTO) ([1]; 3 mg/kg intravenously) | time to occlusion (TTO) ([1]; 10 mg/kg intravenously)
CC[C@H](C)[C@H](N)C(=O)N[C@@H](CO)C(=O)N[C@@H](CCCCN)C(=O)N[C@@H](CCC(N)=O)C(=O)NCC(=O)N[C@@H](CC(C)C)C(=O)NCC(=O)NCC(=O)N[C@@H](CC(=O)O)C(=O)N[C@@H](Cc1ccccc1)C(=O)N[C@@H](CCC(=O)O)C(=O)N[C@@H](CCC(=O)O)C(=O)N[C@H](C(=O)N1CCC[C@H]1C(=O)N[C@@H](CO)C(=O)N[C@@H](CC(=O)O)C(=O)N[C@@H](CCC(=O)O)C(=O)N[C@H](C(=O)N[C@H](C(=O)N[C@@H](CCC(=O)O)C(=O)O)[C@@H](C)CC)[C@@H](C)CC)[C@@H](C)CC [IS20] (H-ISKQGLGGDFEEIPSDEIIE-OH; N-terminus and C-terminus assumed) | 0.86±0.02 | 0.87±0.01 | 12.4 ± 0.32 nM | 5.76 ± 0.23 nM | 0.86 ± 0.02 | inhibited the fibrinogenolytic activity of thrombin in a dose-dependent manner; also recorded: prolonged fibrinogen clotting times in a dose dependent manner |  |  |  |  |  |  | 
CC[C@H](C)[C@H](NC(=O)[C@H](CCCCN)NC(=O)[C@@H]1CCCN1C(=O)[C@@H](NC(=O)[C@H](C)NC(=O)[C@@H](NC(=O)[C@@H](N)CCC(N)=O)[C@@H](C)O)C(C)C)C(=O)N[C@@H](CO)C(=O)N[C@@H](CCCCN)C(=O)N[C@@H](CCC(N)=O)C(=O)NCC(=O)N[C@@H](CC(C)C)C(=O)NCC(=O)NCC(=O)N[C@@H](CC(=O)O)C(=O)N[C@@H](Cc1ccccc1)C(=O)N[C@@H](CCC(=O)O)C(=O)N[C@@H](CCC(=O)O)C(=O)N[C@H](C(=O)N1CCC[C@H]1C(=O)N[C@@H](CO)C(=O)N[C@@H](CC(=O)O)C(=O)N[C@@H](CCC(=O)O)C(=O)N[C@H](C(=O)N[C@H](C(=O)N[C@@H](CCC(=O)O)C(=O)O)[C@@H](C)CC)[C@@H](C)CC)[C@@H](C)CC [QT26] (H-QTAVPKISKQGLGGDFEEIPSDEIIE-OH; N-terminus and C-terminus assumed) | 0.88±0.03 | 0.92±0.03 | 8.94 ± 0.64 nM |  | 0.88 ± 0.03 | inhibited | 0.7603 ± 0.00091 nM |  |  |  |  |  | 
GLGGDFEEIPSDEIIE [GL16] |  |  |  |  | N. I. | inhibited the fibrinogenolytic activity; also recorded: prolonged fibrinogen clotting times in a dose dependent manner |  | did not inhibit amidolytic activity even at 300 μM; also recorded: unable to inhibit thrombin amidolytic activity | N. I.* | N. I. | 5-10% |  | 
hirulog-1: peptidyl bivalent thrombin inhibitor used as comparator drug |  |  |  |  |  |  |  |  |  |  |  | 9.70 ± 3.15 min and 9.76 ± 3.15 min | 15.22 ± 3.39 min and 15.23 ± 3.39 min
